Experimental data reported in ChEMBL document CHEMBL1143523, “Semi-synthesis and biological evaluation of analogues of UK-2A, a novel antifungal antibiotic from Streptomyces sp. 517-02” (2005).

These compounds were tested on Saccharomyces cerevisiae (assay: Zone of inhibition for Saccharomyces cerevisiae IFO 0203 at 0.025 ug/disc by conventional paper disk method).
Format: functional

Structure (SMILES)	zone of inhibition at 0.025 µg/disc
CC(C)C(=O)O[C@H]1[C@H](C)OC(=O)[C@@H](NC(=O)c2cccnc2O)COC(=O)[C@@H]1Cc1ccccc1	0 mm
COc1ccnc(C(=O)N[C@H]2COC(=O)[C@H](Cc3ccccc3)[C@@H](OC(=O)C(C)C)[C@H](C)OC2=O)c1O	19 mm
CCCC[C@H]1C(=O)O[C@H](C)[C@H](NC(=O)c2cccc(NC=O)c2O)C(=O)O[C@@H](C)[C@@H]1OC(=O)CC(C)C [ANTIMYCIN A3]	16 mm
CCOC(=O)COc1c(OC)ccnc1C(=O)N[C@H]1COC(=O)[C@H](Cc2ccccc2)[C@@H](OC(=O)C(C)C)[C@H](C)OC1=O	0 mm
COc1ccnc(C(=O)N[C@H]2COC(=O)[C@H](Cc3ccccc3)[C@@H](OC(=O)C(C)C)[C@H](C)OC2=O)c1OC	0 mm
CC(C)C(=O)O[C@H]1[C@H](C)OC(=O)[C@@H](NC(=O)c2nc3ccccc3nc2O)COC(=O)[C@@H]1Cc1ccccc1	14 mm
COc1ccnc(C(=O)N[C@H]2COC(=O)[C@H](Cc3ccc(N)cc3)[C@@H](OC(=O)C(C)C)[C@H](C)OC2=O)c1O	0 mm
CC(C)C(=O)O[C@H]1[C@H](C)OC(=O)[C@@H](NC(=O)c2cccc(NC=O)c2O)COC(=O)[C@@H]1Cc1ccccc1	8 mm
CC(C)C(=O)O[C@H]1[C@H](C)OC(=O)[C@@H](NC(=O)c2ccccc2O)COC(=O)[C@@H]1Cc1ccccc1	8 mm
COc1ccnc(C(=O)N[C@H]2COC(=O)[C@H](Cc3ccccc3)[C@@H](OC(=O)C(C)C)[C@H](C)OC2=O)c1OC(=O)CCCCCC(=O)O	12 mm
COc1ccnc(C(=O)N[C@H]2COC(=O)[C@H](Cc3ccc(NC=O)cc3)[C@@H](OC(=O)C(C)C)[C@H](C)OC2=O)c1O	0 mm
COc1ccnc(C(=O)N[C@H]2COC(=O)[C@H](Cc3ccc(N(C)C)cc3)[C@@H](OC(=O)C(C)C)[C@H](C)OC2=O)c1O	0 mm
COc1ccnc(C(=O)N[C@H]2COC(=O)[C@H](Cc3ccccc3)[C@@H](OC(=O)C(C)C)[C@H](C)OC2=O)c1OC(C)=O	10 mm
COc1ccnc(C(=O)N[C@H]2COC(=O)[C@H](Cc3ccc([N+](=O)[O-])cc3)[C@@H](OC(=O)C(C)C)[C@H](C)OC2=O)c1O	12 mm
COc1ccc(O)c(C(=O)N[C@H]2COC(=O)[C@H](Cc3ccccc3)[C@@H](OC(=O)C(C)C)[C@H](C)OC2=O)n1	16 mm
COc1ccnc(C(=O)N[C@H]2COC(=O)[C@H](Cc3ccccc3)[C@@H](OC(=O)C(C)C)[C@H](C)OC2=O)c1OC(=O)CCCCCC(=O)Oc1ccccc1	8 mm
CC(C)C(=O)O[C@H]1[C@H](C)OC(=O)[C@@H](NC(=O)c2cccc(N(C)C)c2O)COC(=O)[C@@H]1Cc1ccccc1	8 mm

Each compound was assayed on Saccharomyces cerevisiae (assay: Zone of inhibition for Saccharomyces cerevisiae IFO 0203 at 0.05 ug/disc by conventional paper disk method).
Format: functional

Structure (SMILES)	zone of inhibition at 0.05 µg/disc
CC(C)C(=O)O[C@H]1[C@H](C)OC(=O)[C@@H](NC(=O)c2cccnc2O)COC(=O)[C@@H]1Cc1ccccc1	12 mm
COc1ccnc(C(=O)N[C@H]2COC(=O)[C@H](Cc3ccccc3)[C@@H](OC(=O)C(C)C)[C@H](C)OC2=O)c1O	22 mm
CCCC[C@H]1C(=O)O[C@H](C)[C@H](NC(=O)c2cccc(NC=O)c2O)C(=O)O[C@@H](C)[C@@H]1OC(=O)CC(C)C [ANTIMYCIN A3]	18 mm
CCOC(=O)COc1c(OC)ccnc1C(=O)N[C@H]1COC(=O)[C@H](Cc2ccccc2)[C@@H](OC(=O)C(C)C)[C@H](C)OC1=O	0 mm
COc1ccnc(C(=O)N[C@H]2COC(=O)[C@H](Cc3ccccc3)[C@@H](OC(=O)C(C)C)[C@H](C)OC2=O)c1OC	0 mm
CC(C)C(=O)O[C@H]1[C@H](C)OC(=O)[C@@H](NC(=O)c2nc3ccccc3nc2O)COC(=O)[C@@H]1Cc1ccccc1	18 mm
COc1ccnc(C(=O)N[C@H]2COC(=O)[C@H](Cc3ccc(N)cc3)[C@@H](OC(=O)C(C)C)[C@H](C)OC2=O)c1O	0 mm
CC(C)C(=O)O[C@H]1[C@H](C)OC(=O)[C@@H](NC(=O)c2cccc(NC=O)c2O)COC(=O)[C@@H]1Cc1ccccc1	12 mm
CC(C)C(=O)O[C@H]1[C@H](C)OC(=O)[C@@H](NC(=O)c2ccccc2O)COC(=O)[C@@H]1Cc1ccccc1	8 mm
COc1ccnc(C(=O)N[C@H]2COC(=O)[C@H](Cc3ccccc3)[C@@H](OC(=O)C(C)C)[C@H](C)OC2=O)c1OC(=O)CCCCCC(=O)O	16 mm
COc1ccnc(C(=O)N[C@H]2COC(=O)[C@H](Cc3ccc(NC=O)cc3)[C@@H](OC(=O)C(C)C)[C@H](C)OC2=O)c1O	0 mm
COc1ccnc(C(=O)N[C@H]2COC(=O)[C@H](Cc3ccc(N(C)C)cc3)[C@@H](OC(=O)C(C)C)[C@H](C)OC2=O)c1O	11 mm
COc1ccnc(C(=O)N[C@H]2COC(=O)[C@H](Cc3ccccc3)[C@@H](OC(=O)C(C)C)[C@H](C)OC2=O)c1OC(C)=O	12 mm
COc1ccnc(C(=O)N[C@H]2COC(=O)[C@H](Cc3ccc([N+](=O)[O-])cc3)[C@@H](OC(=O)C(C)C)[C@H](C)OC2=O)c1O	15 mm
COc1ccc(O)c(C(=O)N[C@H]2COC(=O)[C@H](Cc3ccccc3)[C@@H](OC(=O)C(C)C)[C@H](C)OC2=O)n1	19 mm
COc1ccnc(C(=O)N[C@H]2COC(=O)[C@H](Cc3ccccc3)[C@@H](OC(=O)C(C)C)[C@H](C)OC2=O)c1OC(=O)CCCCCC(=O)Oc1ccccc1	10 mm
CC(C)C(=O)O[C@H]1[C@H](C)OC(=O)[C@@H](NC(=O)c2cccc(N(C)C)c2O)COC(=O)[C@@H]1Cc1ccccc1	8 mm

Each compound was assayed on Saccharomyces cerevisiae (assay: Zone of inhibition for Saccharomyces cerevisiae IFO 0203 at 0.125 ug/disc by conventional paper disk method).
Format: functional

Structure (SMILES)	zone of inhibition at 0.125 µg/disc
CC(C)C(=O)O[C@H]1[C@H](C)OC(=O)[C@@H](NC(=O)c2cccnc2O)COC(=O)[C@@H]1Cc1ccccc1	16 mm
COc1ccnc(C(=O)N[C@H]2COC(=O)[C@H](Cc3ccccc3)[C@@H](OC(=O)C(C)C)[C@H](C)OC2=O)c1O	26 mm
CCCC[C@H]1C(=O)O[C@H](C)[C@H](NC(=O)c2cccc(NC=O)c2O)C(=O)O[C@@H](C)[C@@H]1OC(=O)CC(C)C [ANTIMYCIN A3]	19 mm
CCOC(=O)COc1c(OC)ccnc1C(=O)N[C@H]1COC(=O)[C@H](Cc2ccccc2)[C@@H](OC(=O)C(C)C)[C@H](C)OC1=O	0 mm
COc1ccnc(C(=O)N[C@H]2COC(=O)[C@H](Cc3ccccc3)[C@@H](OC(=O)C(C)C)[C@H](C)OC2=O)c1OC	0 mm
CC(C)C(=O)O[C@H]1[C@H](C)OC(=O)[C@@H](NC(=O)c2nc3ccccc3nc2O)COC(=O)[C@@H]1Cc1ccccc1	20 mm
COc1ccnc(C(=O)N[C@H]2COC(=O)[C@H](Cc3ccc(N)cc3)[C@@H](OC(=O)C(C)C)[C@H](C)OC2=O)c1O	8 mm
CC(C)C(=O)O[C@H]1[C@H](C)OC(=O)[C@@H](NC(=O)c2cccc(NC=O)c2O)COC(=O)[C@@H]1Cc1ccccc1	16 mm
CC(C)C(=O)O[C@H]1[C@H](C)OC(=O)[C@@H](NC(=O)c2ccccc2O)COC(=O)[C@@H]1Cc1ccccc1	11 mm
COc1ccnc(C(=O)N[C@H]2COC(=O)[C@H](Cc3ccccc3)[C@@H](OC(=O)C(C)C)[C@H](C)OC2=O)c1OC(=O)CCCCCC(=O)O	21 mm
COc1ccnc(C(=O)N[C@H]2COC(=O)[C@H](Cc3ccc(NC=O)cc3)[C@@H](OC(=O)C(C)C)[C@H](C)OC2=O)c1O	0 mm
COc1ccnc(C(=O)N[C@H]2COC(=O)[C@H](Cc3ccc(N(C)C)cc3)[C@@H](OC(=O)C(C)C)[C@H](C)OC2=O)c1O	15 mm
COc1ccnc(C(=O)N[C@H]2COC(=O)[C@H](Cc3ccccc3)[C@@H](OC(=O)C(C)C)[C@H](C)OC2=O)c1OC(C)=O	14 mm
COc1ccnc(C(=O)N[C@H]2COC(=O)[C@H](Cc3ccc([N+](=O)[O-])cc3)[C@@H](OC(=O)C(C)C)[C@H](C)OC2=O)c1O	18 mm
COc1ccc(O)c(C(=O)N[C@H]2COC(=O)[C@H](Cc3ccccc3)[C@@H](OC(=O)C(C)C)[C@H](C)OC2=O)n1	24 mm
COc1ccnc(C(=O)N[C@H]2COC(=O)[C@H](Cc3ccccc3)[C@@H](OC(=O)C(C)C)[C@H](C)OC2=O)c1OC(=O)CCCCCC(=O)Oc1ccccc1	15 mm
CC(C)C(=O)O[C@H]1[C@H](C)OC(=O)[C@@H](NC(=O)c2cccc(N(C)C)c2O)COC(=O)[C@@H]1Cc1ccccc1	12 mm

The compounds below were run on Saccharomyces cerevisiae (assay: Zone of inhibition for Saccharomyces cerevisiae IFO 0203 at 0.25 ug/disc by conventional paper disk method).
Format: functional

Structure (SMILES)	zone of inhibition at 0.25 µg/disc
CC(C)C(=O)O[C@H]1[C@H](C)OC(=O)[C@@H](NC(=O)c2cccnc2O)COC(=O)[C@@H]1Cc1ccccc1	17 mm
COc1ccnc(C(=O)N[C@H]2COC(=O)[C@H](Cc3ccccc3)[C@@H](OC(=O)C(C)C)[C@H](C)OC2=O)c1O	26 mm
CCCC[C@H]1C(=O)O[C@H](C)[C@H](NC(=O)c2cccc(NC=O)c2O)C(=O)O[C@@H](C)[C@@H]1OC(=O)CC(C)C [ANTIMYCIN A3]	26 mm
CCOC(=O)COc1c(OC)ccnc1C(=O)N[C@H]1COC(=O)[C@H](Cc2ccccc2)[C@@H](OC(=O)C(C)C)[C@H](C)OC1=O	0 mm
COc1ccnc(C(=O)N[C@H]2COC(=O)[C@H](Cc3ccccc3)[C@@H](OC(=O)C(C)C)[C@H](C)OC2=O)c1OC	0 mm
CC(C)C(=O)O[C@H]1[C@H](C)OC(=O)[C@@H](NC(=O)c2nc3ccccc3nc2O)COC(=O)[C@@H]1Cc1ccccc1	24 mm
COc1ccnc(C(=O)N[C@H]2COC(=O)[C@H](Cc3ccc(N)cc3)[C@@H](OC(=O)C(C)C)[C@H](C)OC2=O)c1O	10 mm
CC(C)C(=O)O[C@H]1[C@H](C)OC(=O)[C@@H](NC(=O)c2cccc(NC=O)c2O)COC(=O)[C@@H]1Cc1ccccc1	17 mm
CC(C)C(=O)O[C@H]1[C@H](C)OC(=O)[C@@H](NC(=O)c2ccccc2O)COC(=O)[C@@H]1Cc1ccccc1	12 mm
COc1ccnc(C(=O)N[C@H]2COC(=O)[C@H](Cc3ccccc3)[C@@H](OC(=O)C(C)C)[C@H](C)OC2=O)c1OC(=O)CCCCCC(=O)O	24 mm
COc1ccnc(C(=O)N[C@H]2COC(=O)[C@H](Cc3ccc(NC=O)cc3)[C@@H](OC(=O)C(C)C)[C@H](C)OC2=O)c1O	0 mm
COc1ccnc(C(=O)N[C@H]2COC(=O)[C@H](Cc3ccc(N(C)C)cc3)[C@@H](OC(=O)C(C)C)[C@H](C)OC2=O)c1O	19 mm
COc1ccnc(C(=O)N[C@H]2COC(=O)[C@H](Cc3ccccc3)[C@@H](OC(=O)C(C)C)[C@H](C)OC2=O)c1OC(C)=O	18 mm
COc1ccnc(C(=O)N[C@H]2COC(=O)[C@H](Cc3ccc([N+](=O)[O-])cc3)[C@@H](OC(=O)C(C)C)[C@H](C)OC2=O)c1O	20 mm
COc1ccc(O)c(C(=O)N[C@H]2COC(=O)[C@H](Cc3ccccc3)[C@@H](OC(=O)C(C)C)[C@H](C)OC2=O)n1	27 mm
COc1ccnc(C(=O)N[C@H]2COC(=O)[C@H](Cc3ccccc3)[C@@H](OC(=O)C(C)C)[C@H](C)OC2=O)c1OC(=O)CCCCCC(=O)Oc1ccccc1	18 mm
CC(C)C(=O)O[C@H]1[C@H](C)OC(=O)[C@@H](NC(=O)c2cccc(N(C)C)c2O)COC(=O)[C@@H]1Cc1ccccc1	14 mm
